Structures can show the parent of a compound that is named as a salt.
Biological target: T1, human NCX1 (Homo sapiens, UniProt P32418)
T1 construct: expressed in transfected cells
Experiment: NCX1 inhibition, reverse mode (Ca2+ influx into cells), FLIPR Fluo-4 assay
Format: cell-based
Settings: NCX1 reverse mode; at 30 μM; read-out: Inhibition in % at 30 μM (NCX1rv; IC50 value not determined)
Summary of the method: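 Max−min Fluo-4 fluorescence (520 nm, FLIPR, 240 points at 2 s) after 20 µM final gramicidin, which drives Na+ loading and reverse-mode Ca2+ entry, gave % inhibition and IC50. Test compound was preincubated 45 min at 16 °C with Fluo-4-loaded CHO cells stably expressing human NCX1, in pH 7.4 buffer containing 3.5 mM CaCl2 and probenecid.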

In order of falling inhibition at 30 µM:
1. CC(C)C[C@@H](NC(=O)c1cnc(Oc2ccc3c(c2)CC[C@@H](c2ccccc2)O3)s1)C(=O)OC(C)(C)C [compound 228]  46%
2. CC(C)C[C@H](NC(=O)c1cnc(Oc2ccc3c(c2)CC[C@@H](c2ccccc2)O3)s1)C(=O)OC(C)(C)C [compound 229]  44%
3. CCOC(=O)C[C@H](O)[C@H](CC1CCCCC1)NC(=O)c1cnc(Oc2ccc3c(c2)CC[C@@H](c2ccccc2)O3)s1 [compound 227]  30%

Same assay, conditions: inhibition of NCX1 in reverse mode (Ca2+ influx into cells); read-out: NCX1rv IC50

In order of falling IC50:
1. CCOC(=O)[C@H](Cc1ccccc1)NC(=O)c1cnc(Oc2ccc3c(c2)CC[C@@H](c2ccccc2)O3)s1 [compound 219]  4800 nM
2. COC(=O)C(C)(Cc1ccccc1)NC(=O)c1cnc(Oc2ccc3c(c2)CC[C@@H](c2ccccc2)O3)s1 (some centres unmarked) [compound 218]  2500 nM
3. Cc1noc(C)c1CCNC(=O)c1cnc(Oc2ccc3c(c2)CCC(c2cccc(O)c2)O3)s1 (centres unmarked) [compound 173]  2300 nM
4. CCOC(=O)C(CNC(=O)c1cnc(Oc2ccc3c(c2)CC[C@@H](c2ccccc2)O3)s1)CC(C)C (some centres unmarked) [compound 230]  1500 nM
5. O=C(O)CN1CCN(C(=O)c2cnc(Oc3ccc4c(c3)CC[C@@H](c3ccccc3)O4)s2)CC1 [compound 198]  1300 nM
6. COC(=O)[C@@H]1CC(C)(C)CN1C(=O)c1cnc(Oc2ccc3c(c2)CC[C@@H](c2ccccc2)O3)s1 [compound 223]  1300 nM
7. CCC(C)[C@H](NC(=O)c1cnc(Oc2ccc3c(c2)CC[C@@H](c2ccccc2)O3)s1)C(=O)OC (some centres unmarked) [compound 183]  1200 nM
8. O=C(NC1(C(=O)O)CC1)c1cnc(Oc2ccc3c(c2)CC[C@@H](c2ccccc2)O3)s1 [compound 199]  1000 nM
9. Cc1ccccc1C1CCc2cc(Oc3ncc(C(=O)NCc4ccnc(Cl)c4)s3)ccc2O1 (centres unmarked) [compound 215]  1000 nM
10. CN(CC(=O)O)C(=O)c1cnc(Oc2ccc3c(c2)CC[C@@H](c2ccccc2)O3)s1 [compound 190]  900 nM
11. COC(=O)[C@@H]1[C@@H]2C[C@@H]2CN1C(=O)c1cnc(Oc2ccc3c(c2)CC[C@@H](c2ccccc2)O3)s1 [compound 222]  900 nM
12. O=C(NCc1ccncc1)c1cnc(Oc2ccc3c(c2)CCC(c2cccc(O)c2)O3)s1 (centres unmarked) [compound 174, hydrochloride]  800 nM
13. CN1CCN(C(=O)c2cnc(Oc3ccc4c(c3)CC[C@@H](c3ccccc3)O4)s2)CC1 [compound 213, hydrochloride]  800 nM
14. CN1CC(=O)N(CC(=O)NCc2cnc(Oc3ccc4c(c3)CCC(c3ccccc3)O4)s2)C1=O (centres unmarked) [compound 164]  700 nM
15. CCOC(=O)[C@@H](NC(=O)c1cnc(Oc2ccc3c(c2)CC[C@@H](c2ccccc2)O3)s1)C(C)C [compound 186]  700 nM
16. C[C@@H](NC(=O)c1cnc(Oc2ccc3c(c2)CC[C@@H](c2ccccc2)O3)s1)C(=O)O [compound 194]  700 nM
17. O=C(NC1(C(=O)O)CCCC1)c1cnc(Oc2ccc3c(c2)CC[C@@H](c2ccccc2)O3)s1 [compound 195]  700 nM
18. COC(=O)[C@H](O)[C@H](CC(C)C)NC(=O)c1cnc(Oc2ccc3c(c2)CC[C@@H](c2ccccc2)O3)s1 [compound 226]  700 nM
19. COC(=O)C1(NC(=O)c2cnc(Oc3ccc4c(c3)CC[C@@H](c3ccccc3)O4)s2)CCCC1 [compound 187]  600 nM
20. CCOC(=O)C1(NC(=O)c2cnc(Oc3ccc4c(c3)CC[C@@H](c3ccccc3)O4)s2)CC1 [compound 188]  600 nM
21. C[C@H](NC(=O)c1cnc(Oc2ccc3c(c2)CC[C@@H](c2ccccc2)O3)s1)C(=O)O [compound 191]  600 nM
22. CC(C)(NC(=O)c1cnc(Oc2ccc3c(c2)CC[C@@H](c2ccccc2)O3)s1)C(=O)O [compound 193]  600 nM
23. CC(C)[C@H](NC(=O)c1cnc(Oc2ccc3c(c2)CC[C@@H](c2ccccc2)O3)s1)C(=O)O [compound 197]  600 nM
24. COC(=O)[C@@H](NC(=O)c1cnc(Oc2ccc3c(c2)CC[C@@H](c2ccccc2)O3)s1)C(C)(C)C [compound 220]  600 nM
25. O=C(CN1CCCC1=O)NCc1cnc(Oc2ccc3c(c2)CCC(c2ccccc2)O3)s1 (centres unmarked) [compound 165]  500 nM
26. Cc1nc(Oc2ccc3c(c2)CCC(c2ccccc2)O3)sc1C(=O)NCc1ccnc(Cl)c1 (centres unmarked) [compound 167, hydrochloride]  500 nM
27. Cc1ccccc1C1CCc2cc(Oc3ncc(C(=O)NCc4ccncc4)s3)ccc2O1 (centres unmarked) [compound 179]  500 nM
28. COC(=O)[C@@H]1CCCN1C(=O)c1cnc(Oc2ccc3c(c2)CC[C@@H](c2ccccc2)O3)s1 [compound 185]  500 nM
29. O=C(O)CNC(=O)c1cnc(Oc2ccc3c(c2)CC[C@@H](c2ccccc2)O3)s1 [compound 192]  500 nM
30. CCC(C)[C@H](NC(=O)c1cnc(Oc2ccc3c(c2)CC[C@@H](c2ccccc2)O3)s1)C(=O)O (some centres unmarked) [compound 196]  500 nM
31. O=C(NC[C@H]1CCCC[C@H]1O)c1cnc(Oc2ccc3c(c2)CC[C@@H](c2ccccc2)O3)s1 [compound 207]  500 nM
32. COC(=O)C1(C)CCN(C(=O)c2cnc(Oc3ccc4c(c3)CC[C@@H](c3ccccc3)O4)s2)C1 (some centres unmarked) [compound 225]  500 nM
33. c1ccc(C2CCc3cc(Oc4ncc(CNCc5nnc6ccccn56)s4)ccc3O2)cc1 (centres unmarked) [compound 156]  400 nM
34. c1ccc(C2CCc3cc(Oc4ncc(CNCc5ccnc(N6CCOCC6)c5)s4)ccc3O2)cc1 (centres unmarked) [compound 162]  400 nM
35. Cc1nc(S(=O)(=O)NCc2cnc(Oc3ccc4c(c3)CCC(c3ccccc3)O4)s2)cn1C (centres unmarked) [compound 163]  400 nM
36. O=C(NCc1ccno1)c1cnc(Oc2ccc3c(c2)CC[C@H](c2ccccc2)O3)s1 [compound 172]  400 nM
37. O=C(CN1CC[C@@H](O)C1)NCc1cnc(Oc2ccc3c(c2)CCC(c2ccccc2)O3)s1 (some centres unmarked) [compound 175]  400 nM
38. Cc1ccccc1C1CCc2cc(Oc3ncc(C(=O)NCCc4c(C)noc4C)s3)ccc2O1 (centres unmarked) [compound 176]  400 nM
39. Cc1nc(Oc2ccc3c(c2)CC[C@@H](c2ccccc2)O3)sc1C(=O)NCc1ccnc(Cl)c1 [compound 178, 4-Methyl-2-((S)-2-phenyl-chroman-6-yloxy)-thiazole-5-carboxylic acid (2-chloro-pyridin-4-ylmethyl)-amide hydrochloride]  400 nM
40. COC(=O)[C@@H](C)NC(=O)c1cnc(Oc2ccc3c(c2)CC[C@@H](c2ccccc2)O3)s1 [compound 184]  400 nM
41. O=C(N[C@H]1CCCC[C@H]1C(=O)O)c1cnc(Oc2ccc3c(c2)CC[C@@H](c2ccccc2)O3)s1 [compound 200]  400 nM
42. CC(C)[C@@H](CO)NC(=O)c1cnc(Oc2ccc3c(c2)CC[C@@H](c2ccccc2)O3)s1 [compound 203]  400 nM
43. CC[C@H](C)[C@@H](CO)NC(=O)c1cnc(Oc2ccc3c(c2)CC[C@@H](c2ccccc2)O3)s1 [compound 208]  400 nM
44. O=C(NCc1ccnc(Cl)c1)c1cnc(Oc2ccc3c(c2)CCC(c2ccsc2)O3)s1 (centres unmarked) [compound 211, hydrochloride]  400 nM
45. c1ccc(C2CCc3cc(Oc4ncc(CNCc5ccncn5)s4)ccc3O2)cc1 (centres unmarked) [compound 161]  300 nM
46. Cc1nc(Oc2ccc3c(c2)CCC(c2ccccc2)O3)sc1C(=O)NCc1ccno1 (centres unmarked) [compound 166]  300 nM
47. Cc1nc(Oc2ccc3c(c2)CC[C@@H](c2ccccc2)O3)sc1C(=O)NCCc1ccncc1 [compound 169, hydrochloride]  300 nM
48. Cc1nc(Oc2ccc3c(c2)CCC(c2ccccc2)O3)sc1C(=O)NCCc1ccncc1 (centres unmarked) [compound 170, hydrochloride]  300 nM
49. O=C(N[C@H](CO)c1ccccc1)c1cnc(Oc2ccc3c(c2)CC[C@@H](c2ccccc2)O3)s1 [compound 201]  300 nM
50. O=C(c1cnc(Oc2ccc3c(c2)CC[C@@H](c2ccccc2)O3)s1)N1CCC[C@H]1CO [compound 205]  300 nM
51. CC[C@@H](C)[C@H](CO)NC(=O)c1cnc(Oc2ccc3c(c2)CC[C@@H](c2ccccc2)O3)s1 [compound 209]  300 nM
52. O=C(NCc1ccno1)c1cnc(Oc2ccc3c(c2)CCC(c2ccsc2)O3)s1 (centres unmarked) [compound 212]  300 nM
53. COC(=O)C1CN(C(=O)c2cnc(Oc3ccc4c(c3)CC[C@@H](c3ccccc3)O4)s2)CC1C(F)(F)F (some centres unmarked) [compound 221]  300 nM
54. COC(=O)C1CN(C(=O)c2cnc(Oc3ccc4c(c3)CC[C@@H](c3ccccc3)O4)s2)CC1C (some centres unmarked) [compound 224]  300 nM
55. N#Cc1ccc(CNCc2cnc(Oc3ccc4c(c3)CCC(c3ccccc3)O4)s2)cn1 (centres unmarked) [compound 157]  200 nM
56. Cc1cc(CNCc2cnc(Oc3ccc4c(c3)CCC(c3ccccc3)O4)s2)on1 (centres unmarked) [compound 160]  200 nM
57. Cc1nc(Oc2ccc3c(c2)CC[C@@H](c2ccccc2)O3)sc1C(=O)NCc1ccno1 [compound 168]  200 nM
58. CCOC(=O)[C@H](C)NC(=O)c1cnc(Oc2ccc3c(c2)CC[C@@H](c2ccccc2)O3)s1 [compound 180]  200 nM
59. COC(=O)CNC(=O)c1cnc(Oc2ccc3c(c2)CC[C@@H](c2ccccc2)O3)s1 [compound 181]  200 nM
60. C[C@H](O)[C@H](CO)NC(=O)c1cnc(Oc2ccc3c(c2)CC[C@@H](c2ccccc2)O3)s1 [compound 202]  200 nM
61. O=C(NCc1ccno1)c1cnc(Oc2ccc3c(c2)CCC(c2cc(F)ccc2F)O3)s1 (centres unmarked) [compound 217]  200 nM
62. c1ccc(C2CCc3cc(Oc4ncc(CNCc5ccno5)s4)ccc3O2)cc1 (centres unmarked) [compound 159]  100 nM
63. O=C(NCc1ccno1)c1cnc(Oc2ccc3c(c2)CC[C@@H](c2ccccc2)O3)s1 [compound 171]  100 nM
64. O=C(NCCO)c1cnc(Oc2ccc3c(c2)CC[C@@H](c2ccccc2)O3)s1 [compound 204]  100 nM
65. c1ccc([C@@H]2CCc3cc(Oc4ncc(CNCc5ccno5)s4)ccc3O2)cc1 [compound 210]  100 nM
